# Measurements from patent US8163795B2, “Chroman derivatives, medicaments and use in therapy” (Marshall Edwards, Inc., priority 2004, dated 2012).
# Like-named read-outs stand apart in the source and are kept apart here.
# Legend:
# [1] = tested on: normal fibroblasts (MRC-5); test: Apoptosis in normal fibroblasts; type: cell-based; conditions: same concentration (8 μM) and exposure times (24 and 48 hr) as melanoma cells
# Experimental: Studies were conducted on normal fibroblasts (MRC-5) and TRAIL-sensitive melanoma cells (ME4405 and MEL-RM) using 8 μM of either DHE, or HMC over 24 and 48 hr of exposure (FIG. 9).
# [2] = tested on: HPAC pancreatic cancer tumours; test: Pilot in vivo efficacy study, HPAC tumour bearing mice; set-up: species or system Athymic nu/nu BALB/c mice
# From the text: Subconfluent (80%) flasks of HPAC cells were trypsinised, washed in Hanks balanced salt solution (Sigma), resuspended in dubellco's minimal essential medium (Sigma) and an equal volume of Matrigel™ (Becton Dickson) at a density of 3.7×10^7 cells per ml. Athymic nu/nu BALB/c mice were s.c. inoculated with 3.7×10^6 HPAC cells bi-laterally midway along the dorsal surface. For the HMC (n=3 per dosage regimen) and control groups (n=2), treatment commenced five days post inoculation to allow tumour formation. HMC was formulated 20% HPBCD and delivered i.p. daily for 15 days. The control group received equivalent (weight:weight) i.p. doses of 20% HPBCD. Tumour measurements commenced on day 5 post inoculation (10×10 mm^2) and were measured in 2 dimensions, length (a) and width (b), using calipers. Tumor weight (W) was calculated by the formula W=ab2/2, where a, is the longer of the 2 measurements (Odwyer et al., 1994). Tumour proliferation curves were analyzed with respect to maximal tumour inhibition (treated/control, TIC). On sacrifice, liver, kidney, femur, stomach and colon tissue were fixed in buffered formalin, embedded in paraffin, sections cut and stained with H&E. Stained sections were then submitted to Rothwell consulting for histopathology analysis. Serum biochemistry was conducted on bloods taken from control, vehicle control and HMC treatment groups. Serum analysis was conducted by Veterinary Clinical pathology (U. Syd).
# Histopathological examination of haematoxylin and eosin-stained sections cut from formalin-fixed tissues from two series of experimental mice was made. The liver, kidney, stomach and colon were examined for evidence of toxic damage, the spleen and bone marrow for evidence of myelosuppression and the tumour for degree of necrosis. A score of 0-5 was allocated to each tumour specimen for the degree of necrosis present, a 0 score representing, no necrosis and a score of 5, total necrosis. The sections were scored ‘blind’ on two separate occasions and the final score given in the results is the mean of these two scores.
# TXB2 = test: Eicosanoid synthesis in LPS-stimulated murine macrophages (RAW 264.7); type: cell-based, mouse; conditions: 10 μM; negative values indicate inhibition
# Experimental: (§1) The mouse macrophage cell line RAW 264.7 was cultured in DMEM supplemented with foetal calf serum (FCS), 2 mM glutamine and 50 U/ml penicillin/streptomycin. Subconfluent cells were detached from the flask by gentle scraping and 24-well plates seeded at 5×10^5 cells per well and allowed to adhere for 1 hr. Cells were then treated either test compound at a concentration of 10 μM (in 0.025% DMSO) or vehicle alone, and incubated for 1 hr. LPS 50 ng/ml (LPS—Sigma-Aldrich) was then added. After incubation for 16 hrs, culture media was collected and stored at −80° C. for ecosanoid measurements using enzyme immunometric assays (PGE2 and TXB2—Cayman Chemical).
# (§2) Table 16: Percentage change in eicosanoid synthesis after incubating test compound at 10 μM compared with incubation with vehicle alone.
# PGE2 = test: as above; type: cell-based, mouse; conditions: 10 μM; negative values indicate inhibition
# Experimental: as §1, §2
# cancer cell lines = test: Proliferation assays, statements over several cancer cell lines; type: cell-based; conditions: SKOV-3, PC3, MCF-7, MDA-MB-468, HTB-138, HPAC, large cell lung cancer
# Experimental: (§3) IC50 values were determined for each cell line. Cells were seeded in 96-well plates at an appropriate cell density as determined from growth kinetics analysis and cultured for 5 days in the absence and presence of the test compounds. Cell proliferation was assessed after the addition of 20 μl of 3-4,5 dimethylthiazol-2,5-diphenyl tetrazolium bromide (MTT, 2.5 mg/ml in PBS, Sigma) for 3-4 hrs at 37° C. according to manufacturer's instructions. IC50 values were calculated from semi-log plots of % of control proliferation on the y-axis against log dose on the x-axis.
# 4405 melanoma cell line = test: HMC combination with paclitaxel (synergy); type: cell-based; conditions: for IC50: Table 10, single agent
# Experimental: as §3
# 3-D model analysis of the cytotoxic interaction between drug A and drug B enables the representation of predicted inhibitory effect of two drugs in combination in 3 dimensions to reveal actual regions of synergy or antagonism. The 3D synergy plots are based on a theory of “Theretical Additivity” (TA) as outlined by Kanzawa et al (Int. J. Cancer 71, 311-319 (1997)). Theoretical Additivity was calculated from the cytotoxicities of drug A and drug B as monotherapies using the following formula which assumes the drugs are mutually exclusive inhibitors: […]
# The TA is calculated for each combination of drug concentrations and subtracted from the observed experimental effect for each combination to give a measurement of synergisitic action.
# HMC synergy with paclitaxel was assessed either in combination over 5 days exposure or in sequence (HMC→paclitaxel) against the 4405 melanoma cell line. It was difficult to assess for synergisitic toxicity using a change in IC50 as a measure of synergy due to HMC toxicity as monotherapy (Table 10). […] Evidence of synergy using the HMC-paclitaxel combination was further assessed using the HMC→paclitaxel sequence (24 hr exposure to each compound in sequence) against the melanoma cell line 4405. Using change in IC50 to assess for synergy it was noted that HMC at concentrations of 2 μM markedly chemosensitised the 4405 cells to paclitaxel by >1000 fold (Table 10). HMC-induced chemosensitisation of […] cells to paclitaxel was confirmed using 3D analysis of the data.
# [3] = tested on: IGR3 melanoma cells (Trail-resistant); test: Apoptosis incidence in melanoma cells; type: cell-based
# rabbit kidney cells (RK) = test: Proliferation assay (MTT), normal cell toxicity; type: cell-based; conditions: Oryctolagus cuniculus; rabbit kidney cells; read-out: IC50
# Experimental: The normal cell line NFF (neonatal foreskin fibroblasts) was a sift from Dr. Peter Parsons (Queensland Institute of Medical Research). RK (rabbit kidney) cells were obtained from Miller Whalley (Macquarie University). Both cell lines were cultured in RPMI supplemented with 10% FCS(CSL, Australia), penicillin (100 U/ml), streptomycin ([…]), L-glutamine (2 mM) and sodium bicarbonate (1.2 g/L), and cultured at 37° C. in a humidified atmosphere of 5% CO2.
# as §3
structure (smiles),measurement,setting,value
"COc1ccc(C2c3ccc(O)cc3OCC2c2ccc(O)cc2)cc1 (stereo not shown) [Compound 1, 3-(4-hydroxyphenyl)-4-(4-methoxyphenyl)chroman-7-ol]",induction of apoptosis in normal fibroblasts,[1],do not induce apoptosis
same,"final tumour burden (mean terminal tumour mass), % T/C","[2]; 100 mg/kg i.p. daily, 15 days",62%
same,proliferation of HPAC tumours over the treatment period vs vehicle control,"[2]; 100 mg/kg i.p. daily, 15 days, in 20% HPBCD",significantly retarded the proliferation of HPAC tumours
same,Necrosis Score 0-5 (tumour),"[2]; individual treated mice, 0 no necrosis, 5 total necrosis, mean of two blind scores",2
same,Percentage change in TXB2 synthesis vs vehicle alone,TXB2,0%
same,Percentage change in PGE2 synthesis vs vehicle alone,PGE2,−33.8%
same,activity compared to DHE IC50 values,cancer cell lines,5-10 fold
same,reduction in IC50 in the combination experiment vs paclitaxel monotherapy,4405 melanoma cell line; 5-day combination,30 fold
same,IC50,"4405 melanoma cell line; 120 h, 5 days exposure, read-out: IC50, Combined (monotherapy)",1.26 µM
same,chemosensitisation of 4405 cells to paclitaxel (change in IC50),"4405 melanoma cell line; HMC 2 μM, HMC→paclitaxel sequence",> 1000 fold
same,Change Factor (HMC first),"4405 melanoma cell line; Paclitaxel block, HMC 1 uM 24 hr then paclitaxel 24 hr",11.00
same,Change Factor (HMC first),"4405 melanoma cell line; Paclitaxel block, HMC 2 uM 24 hr then paclitaxel 24 hr",106633.75
same,Change Factor (Combined),"4405 melanoma cell line; Paclitaxel block, with HMC 1 uM, 5-day combination",30.36
same,Change Factor (Combined),"4405 melanoma cell line; Paclitaxel block, with HMC 2 uM, 5-day combination",?HMC effect
same,IC50,"4405 melanoma cell line; 24 hr exposure, read-out: IC50, 24 hr (monotherapy)",55.5 µM
same,Change Factor (HMC first),"4405 melanoma cell line; upper block of Table 10, HMC 2 uM first, sequence",−1.035
same,Change Factor (Combined),"4405 melanoma cell line; upper block of Table 10, HMC 2 uM, 5-day combination",5964.400
same,Percent Apoptosis,"[3]; 24 hr exposure, 1 uM",8%
same,Percent Apoptosis,"[3]; 24 hr exposure, 2 uM",11%
same,Percent Apoptosis,"[3]; 24 hr exposure, 4 uM",39%
same,Percent Apoptosis,"[3]; 24 hr exposure, 8 uM",41%
same,Percent Apoptosis,"[3]; 24 hr exposure, 20 uM",32%
same,Percent Apoptosis,"[3]; 48 hr exposure, 1 uM",1%
same,Percent Apoptosis,"[3]; 48 hr exposure, 2 uM",9%
same,Percent Apoptosis,"[3]; 48 hr exposure, 4 uM",21%
same,Percent Apoptosis,"[3]; 48 hr exposure, 8 uM",38%
same,Percent Apoptosis,"[3]; 48 hr exposure, 20 uM",38%
same,IC50,rabbit kidney cells (RK),61 µM
